US20250353852A1, “COMPOUNDS AND COMPOSITIONS THAT INHIBIT PIKFYVE” (Kineta, Inc., priority 2021, published 2025)

biological target: full-length human PIKFYVE (Homo sapiens (Human), UniProt Q9Y2I7, L932S/Q1183K/Q995L/S1033A/S696N/T998S); experiment: PIKfyve biochemical assay (ADP-Glo Kinase assay, Carna Biosciences); settings: class symbols
Outline: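 N-terminal GST-fused full-length PIKFYVE from baculovirus, incubated with compound, substrate and ATP in 50 mM MOPS, 1 mM DTT, pH7.2 for 1 hour at room temperature. ADP formed detected by ADP-Glo luminescence; IC50 from four-parameter logistic fit of % inhibition.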

Sequence of full-length human PIKFYVE (Q9Y2I7 whole entry S696N/L932S/Q995L/T998S/S1033A/Q1183K, the tested form may be a part): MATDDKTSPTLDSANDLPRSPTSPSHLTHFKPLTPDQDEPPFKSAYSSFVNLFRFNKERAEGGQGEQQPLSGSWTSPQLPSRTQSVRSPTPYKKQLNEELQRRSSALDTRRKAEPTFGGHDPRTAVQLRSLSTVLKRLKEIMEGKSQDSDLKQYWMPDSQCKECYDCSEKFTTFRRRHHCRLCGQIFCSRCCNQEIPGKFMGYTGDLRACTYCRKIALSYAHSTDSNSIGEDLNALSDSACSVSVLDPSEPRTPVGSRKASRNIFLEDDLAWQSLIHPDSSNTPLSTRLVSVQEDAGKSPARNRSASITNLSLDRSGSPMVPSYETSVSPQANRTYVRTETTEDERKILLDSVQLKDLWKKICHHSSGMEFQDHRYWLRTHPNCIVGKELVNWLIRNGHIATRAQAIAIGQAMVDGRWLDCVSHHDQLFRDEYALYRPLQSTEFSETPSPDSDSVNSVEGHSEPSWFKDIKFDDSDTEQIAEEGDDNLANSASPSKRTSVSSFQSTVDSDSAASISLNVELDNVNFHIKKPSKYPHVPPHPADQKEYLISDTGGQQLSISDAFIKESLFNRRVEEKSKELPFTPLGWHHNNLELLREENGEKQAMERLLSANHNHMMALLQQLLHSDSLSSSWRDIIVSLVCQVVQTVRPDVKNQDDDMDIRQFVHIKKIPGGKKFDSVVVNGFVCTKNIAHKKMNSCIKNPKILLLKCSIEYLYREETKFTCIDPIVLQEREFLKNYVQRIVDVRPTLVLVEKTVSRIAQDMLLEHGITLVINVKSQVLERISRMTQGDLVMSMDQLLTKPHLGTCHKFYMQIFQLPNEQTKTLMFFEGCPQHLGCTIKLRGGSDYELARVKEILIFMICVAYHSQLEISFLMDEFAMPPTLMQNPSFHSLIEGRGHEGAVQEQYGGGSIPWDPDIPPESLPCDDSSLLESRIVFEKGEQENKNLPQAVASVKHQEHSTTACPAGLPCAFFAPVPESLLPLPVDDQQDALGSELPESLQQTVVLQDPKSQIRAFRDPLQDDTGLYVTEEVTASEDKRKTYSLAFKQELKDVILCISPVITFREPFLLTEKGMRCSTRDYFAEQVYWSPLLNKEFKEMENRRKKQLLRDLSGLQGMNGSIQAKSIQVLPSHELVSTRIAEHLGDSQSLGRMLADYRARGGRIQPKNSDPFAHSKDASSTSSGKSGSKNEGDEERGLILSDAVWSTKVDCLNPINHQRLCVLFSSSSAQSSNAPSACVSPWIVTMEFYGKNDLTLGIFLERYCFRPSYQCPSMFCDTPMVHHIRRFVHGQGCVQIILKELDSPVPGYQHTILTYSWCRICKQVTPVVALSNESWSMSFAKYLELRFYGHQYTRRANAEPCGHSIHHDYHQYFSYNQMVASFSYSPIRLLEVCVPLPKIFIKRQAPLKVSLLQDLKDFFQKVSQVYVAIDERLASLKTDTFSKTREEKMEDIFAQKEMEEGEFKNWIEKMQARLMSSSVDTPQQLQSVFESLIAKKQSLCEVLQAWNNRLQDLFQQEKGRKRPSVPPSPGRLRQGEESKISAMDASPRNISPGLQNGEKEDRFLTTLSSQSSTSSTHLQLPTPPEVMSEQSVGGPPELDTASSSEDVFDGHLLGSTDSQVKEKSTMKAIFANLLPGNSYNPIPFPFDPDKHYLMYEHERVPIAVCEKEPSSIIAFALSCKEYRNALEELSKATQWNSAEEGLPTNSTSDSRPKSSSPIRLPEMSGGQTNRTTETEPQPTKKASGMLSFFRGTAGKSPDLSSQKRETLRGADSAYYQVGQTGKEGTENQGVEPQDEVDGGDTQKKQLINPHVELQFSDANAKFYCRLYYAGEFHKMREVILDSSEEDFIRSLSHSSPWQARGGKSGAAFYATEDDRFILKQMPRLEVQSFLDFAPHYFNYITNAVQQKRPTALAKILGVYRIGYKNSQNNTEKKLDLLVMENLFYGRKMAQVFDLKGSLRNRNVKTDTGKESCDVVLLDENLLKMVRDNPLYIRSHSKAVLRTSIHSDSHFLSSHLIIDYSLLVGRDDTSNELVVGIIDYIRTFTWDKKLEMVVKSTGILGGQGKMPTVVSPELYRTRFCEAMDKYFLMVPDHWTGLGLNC

`Fc1cccc(Oc2ncccc2-c2cc(N3CCOCC3)n3nc(-c4ccncc4)cc3n2)c1` [Compound 137, 4-(5-(2-(3-fluorophenoxy)pyridin-3-yl)-2-(pyridin-4-yl)pyrazolo[1,5-a]pyrimidin-7-yl)morpholine] and `Fc1ccc(Oc2ncccc2-c2cc(N3CCOCC3)n3nc(-c4ccncc4)cc3n2)cc1` [Compound 138, 4-(5-(2-(4-fluorophenoxy)pyridin-3-yl)-2-(pyridin-4-yl)pyrazolo[1,5-a]pyrimidin-7-yl)morpholine] fall in the same range of IC50: 100 to 1000 nM for the first, 100 to 1000 nM for the second.

`Fc1cccc(-c2nccc(-c3cc(N4CCOCC4)n4nc(-c5ccncc5)cc4n3)n2)c1` [Compound 139, 4-(5-(2-(3-fluorophenyl)pyrimidin-4-yl)-2-(pyridin-4-yl)pyrazolo[1,5-a]pyrimidin-7-yl)morpholine] and `c1ccc(Cc2nccc(-c3cc(N4CCOCC4)n4nc(-c5ccncc5)cc4n3)n2)cc1` [Compound 140, 4-(5-(2-benzylpyrimidin-4-yl)-2-(pyridin-4-yl)pyrazolo[1,5-a]pyrimidin-7-yl)morpholine] fall in the same range of IC50: 100 to 1000 nM for the first, 100 to 1000 nM for the second.

Compared with `C=Cc1cc2nc(-n3ccc(-c4ccccc4)n3)cc(N3CCOCC3)n2n1` [Compound 143, 4-(5-(3-phenyl-1H-pyrazol-1-yl)-2-vinylpyrazolo[1,5-a]pyrimidin-7-yl)morpholine], `OCC(O)c1cc2nc(-n3ccc(-c4ccccc4)n3)cc(N3CCOCC3)n2n1` (stereo not shown) [Compound 144, 1-(7-morpholino-5-(3-phenyl-1H-pyrazol-1-yl)pyrazolo[1,5-a]pyrimidin-2-yl)ethane-1,2-diol] is lower in IC50: 100 to 1000 nM for the first, 10 to 100 nM for the second. The second is the more potent here.

Compared with `c1ccc(-n2nccc2-c2cc(N3CCOCC3)n3nc(-c4ccncc4)cc3n2)cc1` [Compound 146, 4-(5-(1-phenyl-1H-pyrazol-5-yl)-2-(pyridin-4-yl)pyrazolo[1,5-a]pyrimidin-7-yl)morpholine], `c1ccc(-c2ccn(-c3cc(N4CCOCC4)n4nc(-c5ccncc5)cc4n3)n2)cc1` [Compound 148] is lower in IC50: 100 to 1000 nM for the first, 10 to 100 nM for the second.

same assay, conditions: numeric values

Point of comparison: `Fc1cccc(-c2ccnn2-c2cc(N3CCOCC3)n3nc(-c4ccncc4)cc3n2)c1` [Compound 147, 4-(5-(5-(3-fluorophenyl)-1H-pyrazol-1-yl)-2-(pyridin-4-yl)pyrazolo[1,5-a]pyrimidin-7-yl)morpholine], IC50 1570 nM. Against it:
- c1ccc(Oc2nccc(-c3cc(N4CCOCC4)n4nc(-c5ccncc5)cc4n3)n2)cc1 [Compound 141, 4-(5-(2-phenoxypyrimidin-4-yl)-2-(pyridin-4-yl)pyrazolo[1,5-a]pyrimidin-7-yl)morpholine] — 1.6-fold lower, 1000 nM
